Experimental data taken from article PMC13181001 (Communications Medicine, 2026).
pIC50, pKi: −log10 of the molar value. Where two headings read alike, the source gives them in different places.

Legend:
[1] = tested on: P-gp and BCRP in Caco-2 cells
[2] = Body weight evaluation in allograft and xenograft mouse models; type: in vivo; conditions: once-daily oral administration; NIH/3T3-EGFR allograft models (Fig. 5a–d)
[3] = tested on: Ba/F3 cell EGFR (ex19del); assay: Ba/F3-EGFR cell viability assay (CellTiter-Glo); type: cell-based, murine; conditions: Mus musculus, BaF3, Mean
[4] = molecular target: human recombinant EGFR L858R (Homo sapiens, UniProt P00533, L858R); assay: EGFR biochemical kinetics assay (PhosphoSens Kinase Assay), Ki
[5] = tested on: A-431 (wild-type) xenograft; type: in vivo, mouse; conditions: at least at doses below 50 mg/kg; once-daily oral
[6] = molecular target: human recombinant EGFR Ex19del/T790M/C797S (Homo sapiens, UniProt P00533, C797S/DEL746-750/T790M); assay: EGFR biochemical kinetics assay (PhosphoSens Kinase Assay), Ki
[7] = Assessment of brain penetrability in mice (plasma and brain PK); type: in vivo; conditions: BALB/cAJcl-nu/nu, mouse; for AUC(0-t): plasma, male nude mice, read-out: AUC0-24 hr Plasma; for Kp uu / Kp: male, oral; for Kp uu: brain, unbound brain AUC / unbound plasma AUC; for Kp: brain AUC0-24 hr / plasma AUC0-24 hr
[8] = tested on: EGFR harboring L718Q and L718V; assay: Inhibitory spectrum against other osimertinib-resistant mutations (author rebuttal); conditions: data not shown
[9] = molecular target: human recombinant EGFR Ex19del (Homo sapiens, UniProt P00533, DEL746-750); assay: EGFR biochemical kinetics assay (PhosphoSens Kinase Assay), Ki
[10] = tested on: Ba/F3 cell EGFR (L858R/T790M/C797S); assay: Ba/F3-EGFR cell viability assay (CellTiter-Glo); type: cell-based, murine; conditions: Mus musculus, BaF3, Mean
[11] = molecular target: recombinant wild-type and mutated EGFR; assay: Off-chip mobility shift assay (MSA) at ATP concentrations near Km; type: biochemical, human; conditions: ATP concentrations near the Km values for ATP in each recombinant EGFR
Experimental: The reaction mixtures and test compounds dissolved in dimethylsulfoxide (DMSO) were mixed and incubated for 1 hour at room temperature. The reaction was terminated by adding the Termination Buffer of QuickScout Screening Assist MSA (Carna Biosciences). The reaction mixture was applied to a LabChip system (PerkinElmer), and the product (P) and substrate (S) peptide peaks were separated and quantified. The kinase reaction was evaluated by calculating the product ratio from the peak heights of the P and S peptides (P/(P + S)). […] IC50 values were calculated from the concentration vs %inhibition curves by fitting to a four-parameter logistic curve using Microsoft Excel 2013 with the Solver add-in software.
Supplementary Fig 1. Chemical structure of EGFR-TKIs in the series of pyrrolopyrimidine-quinoline chemical core structure. The chemical structures of TAS3351 (a), TAS3351 analog, […]
the pyrrolopyrimidine-quinoline chemical core structure. Red-highlighted parts of the chemical structures indicate the pyrrolopyrimidine-quinoline. […]
inhibition was measured via Off-chip Mobility Shift Assay (MSA) using recombinant wild-type and mutated EGFR in the ATP concentration relevant to Km values of each human recombinant EGFR. ATP concentrations in the assay in each recombinant EGFR are as follows: wild type, ex19del/T790M, and […]
indicate standard deviation (s.d.) from triplicates. […]

[12] = tested on: pEGFR, pAkt, pErk1/2 in NCI-H1975 xenograft tumors; assay: Pharmacodynamic marker analysis (immunoblotting) in NCI-H1975 xenograft tumors; type: in vivo, mouse; conditions: for phosphorylation of EGFR, Akt, and Erk1/2 in tumor: 24 h
Experimental: Frozen tumor samples were homogenized in cold RIPA buffer (Thermo Fisher Scientific) supplemented with PhosSTOP (Merck KGaA) and cOmplete, Mini, EDTA-free Protease Inhibitor Cocktail (Merck KGaA) using Multi-beads Shocker (Yasui Kikai Corporation). The tumor protein extracts obtained via centrifugation of the supernatants were stored on ice until the assay. The protein concentration of the extracts was determined using BCA Protein Assay (Thermo Fisher Scientific), according to the manufacturer’s protocol. The protein concentration of the extracts was adjusted to 1 mg/mL using RIPA buffer and Lane Marker Reducing Sample Buffer (Thermo Fisher Scientific) to prepare SDS-PAGE samples; afterward, the samples were denatured by heating at 98 °C for 5 min. After cooling to room temperature, the extracts and samples were frozen until SDS-PAGE analysis. 5 μg/lane of each SDS-PAGE sample was subjected to SDS-PAGE analysis using 7.5% polyacrylamide gels (Bio-Rad Laboratories) and transferred to polyvinylidene difluoride (PVDF) membranes using a Trans-Blot Turbo Transfer System (Bio-Rad Laboratories). Membranes were blocked with the PVDF Blocking Reagent for Can Get Signal (TOYOBO). After blotting with primary antibodies, the membranes were incubated with horseradish peroxidase (HRP)-conjugated secondary antibodies. The antibodies were diluted in Can Get Signal Solution1/2 (TOYOBO) according to the manufacturer’s protocol. […] All antibodies were diluted to a concentration of 1:1000.

[13] = tested on: NIH/3T3-EGFR (ex19del/T790M/C797S)-luc cells; assay: Intracranial tumor transplanted mouse allograft model; type: in vivo; conditions: 20 and 40 mg/kg; with statistical significance
255 kinases = assay: Kinome-wide selectivity, Off-chip Mobility Shift Assay; type: biochemical; conditions: 20 nmol/L
Experimental: However, the potential secondary effects of the pharmacological inhibition of these eight kinases, with IC50 values below that of the wild-type EGFR, remain to be elucidated.
Supplementary Fig 3. […] The […]
plasmon resonance (SPR) analysis with single-cycle kinetics. KD values were calculated via curve fitting with 1:1 binding model or steady-state affinity evaluation. Mean KD values and standard deviation (s.d.) obtained from three independent experiments are shown.
Supplementary Fig 4. Kinome-wide selectivity of TAS3351. […]
determination of the IC50 values. […]

[14] = molecular target: human recombinant EGFR L858R/T790M (Homo sapiens, UniProt P00533, L858R/T790M); assay: EGFR biochemical kinetics assay (PhosphoSens Kinase Assay), Ki
[15] = molecular target: human recombinant EGFR Ex19del/T790M (Homo sapiens, UniProt P00533, DEL746-750/T790M); assay: as above

P-gp or BCRP substrate [1]: not a P-gp or BCRP substrate
pIC50 [3]: 8.55
pKi [4]: 9.59
difference in the Ki values between ex19del and L858R mutations ([4]; L858R vs ex19del): over 50 fold
pKi [6]: 10.74
AUC(0-t) ([7]; 20 mg/kg single oral): 72.5 µM·h
AUC(0-t) ([7]; 40 mg/kg single oral): 202 µM·h
AUC(0-t) ([7]; 80 mg/kg single oral): 377 µM·h
Kp uu ([7]; 20 mg/kg): 0.68
Kp uu ([7]; 40 mg/kg): 1.08
Kp uu ([7]; 80 mg/kg): 1.47
Kp ([7]; 20 mg/kg): 0.32
Kp ([7]; 40 mg/kg): 0.51
Kp ([7]; 80 mg/kg): 0.69
pKi [9]: 11.32
pIC50 [10]: 6.62
IC50 values [11]: sub-nanomolar range
pKi [14]: 9.65
pKi [15]: 11.19
SMILES: C#Cc1c(-c2cnc3ccccc3c2)c2c(N)ncnc2n1C12CCC(NC(=O)c3cnc(C)cn3)(CC1)C2 [TAS3351]
body weight [2]: without apparent body weight loss
inhibition of xenograft growth [5]: did not demonstrate statistically significant inhibition of xenograft growth
efficacy against EGFR harboring L718Q and L718V [8]: not effective
phosphorylation of EGFR, Akt, and Erk1/2 in tumor ([12]; 40 mg/kg single oral): restored to nearly baseline
phosphorylation of EGFR, Akt, and Erk1/2 in tumor ([12]; 80 mg/kg single oral): partially inhibited
phosphorylation of EGFR, Akt, and Erk1/2 in tumor vs control ([12]; 40 and 80 mg/kg single oral, 1–8 h post-administration): significantly reduced
intracranial luciferase activity (total flux) vs vehicle [13]: reduced intracranial luciferase activity
number of kinases whose enzymatic activity was inhibited by over 50% (255 kinases): 26
